These results are taken from patent US20260062422A1 (Halda Therapeutics OpCo, Inc., priority 2022, published 2026).

Broadly, the GI50 is the concentration giving 50% growth inhibition. A low value points to greater sensitivity of the cells.

SMILES strings stand for the structures.

One assay relates to VCaP cells. The assay can be described thus: Cellular growth inhibition assay for VCaP cells, CellTiter-Glo. Type of assay: cell-based, human. Particulars: Homo sapiens, VCaP, 72 h, 72 hours treatment, CellTiter-Glo 2.0. In short, it runs like this:
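GI50 values come from four-parameter curve fits of luminescence data normalized to a zero baseline. Compound, in medium with 0.5% DMSO, was added one day after plating and left for 72 h before CellTiter-Glo 2.0 addition.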
Background: ATP-based viability assays read luminescence as a measure of living cells.

The test system of assay [1] is T-Rex 293 cell line SC3 cells lacking increased expression of androgen receptor protein. The assay can be described thus: Cellular growth inhibition, T-Rex 293 SC3 cells without doxycycline, CellTiter-Glo. Type of assay: cell-based. Particulars: 72 h, T-Rex 293 SC3 cells not exposed to doxycycline, CellTiter-Glo 2.0. The essentials:
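GI50 came from a four-parameter fit of CellTiter-Glo 2.0 luminescence after 72 h compound exposure (0.5% DMSO, 37 °C), dosing 24 h post-seeding. SC3 clone cells (2500/well), transfected with wild-type androgen receptor, grew in charcoal-stripped serum medium lacking phenol red, induced with 10 ng/mL doxycycline or left uninduced.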

For `CCNC(=O)C[C@@H]1N=C(c2ccc(N(C3CC3)C3CN(CC4CCN(c5ncc(C(=O)N[C@H]6C(C)(C)[C@H](Oc7ccc(C#N)c(Cl)c7)C6(C)C)cn5)CC4)C3)cc2)c2c(sc(C)c2C)-n2c(C)nnc21` [Compound I-129], the GI50 is under 0.5 µM in the assay with VCaP cells and 1.5 to 3 µM in assay [1].
Take `CCNC(=O)C[C@@H]1N=C(c2ccc(N(C)C3CC(OC4CCN(c5ncc(C(=O)N[C@H]6C(C)(C)[C@H](Oc7ccc(C#N)c(Cl)c7)C6(C)C)cn5)CC4)C3)cc2)c2c(sc(C)c2C)-n2c(C)nnc21` (stereo partly shown) [Compound I-130]: the GI50 (with VCaP cells; in assay [1]) was 0.5 to 1.5 µM throughout.
As for `Cc1sc2c(c1C)C(c1ccc(CCCOC3CCN(c4ncc(C(=O)N[C@H]5C(C)(C)[C@H](Oc6ccc(C#N)c(Cl)c6)C5(C)C)cn4)CC3)cc1)=N[C@@H](Cc1ncco1)c1nnc(C)n1-2` [Compound I-131, N-[3-(3-chloro-4-cyano-phenoxy)-2,2,4,4-tetramethyl-cyclobutyl]-2-[4-[3-[4-[(9S)-4,5,13-trimethyl-9-(oxazol-2-ylmethyl)-3-thia-1,8,11,12-tetrazatricyclo[8.3.0.02,6]trideca-2(6),4,7,10,12-pentaen-7-yl]phenyl]propoxy]-1-piperidyl]pyrimidine-5-carboxamide], the GI50 (in the assay on VCaP cells; in assay [1]) was under 0.5 µM throughout.
For the molecule `Cc1sc2c(c1C)C(c1ccc(CC3CC(C4CCN(c5ncc(C(=O)N[C@H]6C(C)(C)[C@H](Oc7ccc(C#N)c(Cl)c7)C6(C)C)cn5)CC4)C3)cc1)=NC(Cc1ncco1)c1nnc(C)n1-2` (stereo partly shown) [Compound I-136], the GI50 was under 0.5 µM in the assay with VCaP cells and over 3 µM in assay [1].
The matching figures for `Cc1sc2c(c1C)C(c1ccc(CC3CN(CC4CCN(c5ncc(C(=O)N[C@H]6C(C)(C)[C@H](Oc7ccc(C#N)c(Cl)c7)C6(C)C)cn5)CC4)C3)cc1)=N[C@@H](Cc1ncco1)c1nnc(C)n1-2` [Compound I-153]: under 0.5 µM and 0.5 to 1.5 µM.
Take `Cc1sc2c(c1C)C(c1ccc(C[C@H]3C[C@@H]([C@@H]4CCCN(c5ncc(C(=O)N[C@H]6C(C)(C)[C@H](Oc7ccc(C#N)c(Cl)c7)C6(C)C)cn5)C4)C3)cc1)=N[C@@H](Cc1ncco1)c1nnc(C)n1-2` [Compound I-161]: the GI50 in the assay with VCaP cells was under 0.5 µM; in assay [1], 0.5 to 1.5 µM.
The matching figures for `Cc1sc2c(c1C)C(c1ccc(OC3CC4(CCN(c5ncc(C(=O)N[C@H]6C(C)(C)[C@H](Oc7ccc(C#N)c(Cl)c7)C6(C)C)cn5)CC4)C3)cc1)=NC(Cc1ncco1)c1nnc(C)n1-2` (stereo partly shown) [Compound I-166]: under 0.5 µM and 0.5 to 1.5 µM.
For `Cc1sc2c(c1C)C(c1ccc(OC3CN(CC4CCN(c5ncc(C(=O)N[C@H]6C(C)(C)[C@H](Oc7ccc(C#N)c(Cl)c7)C6(C)C)cn5)CC4)C3)cc1)=N[C@H](Cc1ncco1)c1nnc(C)n1-2` [Compound I-169] the same measures were under 0.5 µM and over 3 µM.
With `Cc1sc2c(c1C)C(c1ccc(O[C@H]3CC[C@@]4(CCCN(c5ncc(C(=O)N[C@H]6C(C)(C)[C@H](Oc7ccc(C#N)c(Cl)c7)C6(C)C)cn5)C4)CC3)cc1)=N[C@@H](Cc1ncco1)c1nnc(C)n1-2` [Compound I-172], the GI50 (in the assay with VCaP cells; in assay [1]) was 0.5 to 1.5 µM each time.
Turning to `Cc1sc2c(c1C)C(c1ccc(N3CC(C4CCN(c5ncc(C(=O)N[C@H]6C(C)(C)[C@H](Oc7ccc(C#N)c(Cl)c7)C6(C)C)cn5)CC4)C3)cc1)=NC(Cc1ncco1)c1nnc(C)n1-2` (stereo partly shown) [Compound I-209], the values for the GI50 (with VCaP cells; in assay [1]) were under 0.5 µM and over 3 µM, respectively.
For `COCC[C@@H]1N=C(c2ccc(CCCOC3CCN(c4ncc(C(=O)N[C@H]5C(C)(C)[C@H](Oc6ccc(C#N)c(Cl)c6)C5(C)C)cn4)CC3)cc2)c2c(sc(C)c2C)-n2c(C)nnc21` [Compound I-227, N-[3-(3-chloro-4-cyano-phenoxy)-2,2,4,4-tetramethyl-cyclobutyl]-2-[4-[3-[4-[(9S)-9-(2-methoxyethyl)-4,5,13-trimethyl-3-thia-1,8,11,12-tetrazatricyclo[8.3.0.02,6]trideca-2(6),4,7,10,12-pentaen-7-yl]phenyl]propoxy]-1-piperidyl]pyrimidine-5-carboxamide] the same measures were over 3 µM and 0.5 to 1.5 µM.
As for `Cc1sc2c(c1C)C(c1ccc(CCCOC3CCN(c4ncc(C(=O)N[C@H]5C(C)(C)[C@H](Oc6ccc(C#N)c(Cl)c6)C5(C)C)cn4)CC3)cc1)=N[C@@H](C)c1nnc(C)n1-2` [Compound I-228, N-[3-(3-chloro-4-cyano-phenoxy)-2,2,4,4-tetramethyl-cyclobutyl]-2-[4-[3-[4-[(9S)-4,5,9,13-tetramethyl-3-thia-1,8,11,12-tetrazatricyclo [8.3.0.02,6]trideca-2(6),4,7,10,12-pentaen-7-yl]phenyl]propoxy]-1-piperidyl]pyrimidine-5-carboxamide], the GI50 is under 0.5 µM in the assay on VCaP cells and 0.5 to 1.5 µM in assay [1].
For `Cc1sc2c(c1C)C(c1ccc(OCCOC3CCN(c4ncc(C(=O)N[C@H]5C(C)(C)[C@H](Oc6ccc(C#N)c(Cl)c6)C5(C)C)cn4)CC3)cc1)=N[C@@H](CC(=O)OC(C)(C)C)c1nnc(C)n1-2` [Compound I-235, tert-butyl 2-((S)-4-(4-(2-((1-(5-(((1r,3r)-3-(3-chloro-4-cyanophenoxy)-2,2,4,4-tetramethylcyclobutyl)carbamoyl)pyrimidin-2-yl)piperidin-4-yl)oxy)ethoxy)phenyl)-2,3,9-trimethyl-6H-thieno[3,2-f][1,2,4]triazolo[4,3-a][1,4]diazepin-6-yl)acetate] the same measures were under 0.5 µM and over 3 µM.
For the molecule `Cc1sc2c(c1C)C(c1ccc(C3CC3C3CC4(CCN(c5ncc(C(=O)N[C@H]6C(C)(C)[C@H](Oc7ccc(C#N)c(Cl)c7)C6(C)C)cn5)CC4)C3)cc1)=N[C@@H](Cc1ncco1)c1nnc(C)n1-2` (stereo partly shown) [Compound I-237], the GI50 was under 0.5 µM in the assay with VCaP cells and over 3 µM in assay [1].
As to `Cc1sc2c(c1C)C(c1ccc(CCC3CC4(CCCN(c5ncc(C(=O)N[C@H]6C(C)(C)[C@H](Oc7ccc(C#N)c(Cl)c7)C6(C)C)cn5)C4)C3)cc1)=N[C@@H](Cc1ncco1)c1nnc(C)n1-2` [Compound I-241], the GI50 in the assay with VCaP cells was over 3 µM; in assay [1], under 0.5 µM.
The matching figures for `Cc1sc2c(c1C)C(c1ccc(C#CC3CC4(CCN(c5ncc(C(=O)N[C@H]6C(C)(C)[C@H](Oc7ccc(C#N)c(Cl)c7)C6(C)C)cn5)CC4)C3)cc1)=N[C@@H](Cc1ncco1)c1nnc(C)n1-2` [Compound I-267]: under 0.5 µM and under 0.5 µM.
For `Cc1sc2c(c1C)C(c1ccc(N3CC(CC4CCN(c5ncc(C(=O)N[C@H]6C(C)(C)[C@H](Oc7ccc(C#N)c(Cl)c7)C6(C)C)cn5)CC4)C3)cc1)=N[C@@H](C)c1nnc(C)n1-2` [Compound I-270] the same measures were 1.5 to 3 µM and over 3 µM.
Regarding `Cc1sc2c(c1C)C(c1ccc(N3CC(C4CCN(c5ncc(C(=O)N[C@H]6C(C)(C)[C@H](Oc7ccc(C#N)c(Cl)c7)C6(C)C)cn5)CC4)C3)cc1)=N[C@@H](C)c1nnc(C)n1-2` [Compound I-271], the GI50 (with VCaP cells; in assay [1]) was over 3 µM throughout.
With `Cc1sc2c(c1C)C(c1ccc(OC3CC4(C3)CC3(CCN(c5ncc(C(=O)N[C@H]6C(C)(C)[C@H](Oc7ccc(C#N)c(Cl)c7)C6(C)C)cn5)CC3)C4)cc1)=N[C@@H](Cc1ncco1)c1nnc(C)n1-2` [Compound I-283], the figures for the GI50 (with VCaP cells; in assay [1]) were under 0.5 µM and over 3 µM, respectively.
As for `Cc1sc2c(c1C)C(c1ccc(CC3CC4(CCN(c5ncc(C(=O)N[C@H]6C(C)(C)[C@H](Oc7ccc(C#N)c(Cl)c7)C6(C)C)cn5)CC4)C3)cc1)=N[C@@H](C)c1nnc(C)n1-2` [Compound I-436], the GI50 is over 3 µM in the assay with VCaP cells and 1.5 to 3 µM in assay [1].
